pIC50: −log10 of the molar value.
Target: T1, HIV-integrase (Human immunodeficiency virus type 1 group M subtype B, UniProt P12497)
T1 construct: Recombinant integrase (0.26 ng) was incubated with the beads
Experiment: HIV-Integrase Inhibition Activity (SPA bead strand transfer assay)
Assay type: biochemical
Settings: recombinant integrase, in vitro
Procedure: HIV-Integrase Inhibition Activity. To evaluate in-vitro activity against HIV-integrase, 5 pmole of biotin labeled substrate DNA was bound to 100 μg of Streptavidin coated PVT SPA beads (Amersham Pharmacia Biotech). Recombinant integrase (0.26 ng) was incubated with the beads for 90 min at 37° C. Unbound enzyme was removed by washing the complex followed by addition of inhibitors and 0.1 fmol of P33 labeled target DNA. The reaction was stopped by adding EDTA to a final concentration of […]. Samples were counted in TopCountNXT (Packard) and the CPM was used as a measure of integration. The reaction condition was as described in A. Engelman and R. Craigie, J. Virol. 69, 5908–5911 (1995). The sequences of substrate and target DNA were described in Nucleic Acid Research 22, 1121–1122 (1994).

**Q.** `CN1Nc2nc(C(=O)NCc3ccc(F)cc3)c(O)c(=O)n2CC1=O` [Example 29, N-(4-Fluorobenzyl)-7-hydroxy-2-methyl-3,6-dioxo-2,3,4,6-tetrahydro-1H-pyrimido[2,1-c][1,2,4]triazine-8-carboxamide] was tested. Which pIC50 did it give?
**A.** ≤ 7.30

**Q.** `CN1Cc2nc(C(=O)NCc3ccc(F)cc3)c(O)c(=O)n2CC1=O` [Example 44, N-(4-Fluorobenzyl)-3-hydroxy-8-methyl-4,7-dioxo-6,7,8,9-tetrahydro-4H-pyrazino[1,2-a]pyrimidine-2-carboxamide] was tested. Which pIC50 did it give?
**A.** ≤ 7.30

**Q.** How did the pIC50 turn out when `CN1C(=O)Cn2c1nc(C(=O)NCc1ccc(F)cc1)c(O)c2=O` [Example 9, N-(4-Fluorobenzyl)-6-hydroxy-1-methyl-2,5-dioxo-1,2,3,5-tetrahydroimidazo[1,2-a]pyrimidine-7-carboxamide] was run?
**A.** ≤ 7.30

**Q.** How did the pIC50 turn out when `Cc1cc(CNC(=O)c2nc3n(c(=O)c2O)CC(=O)N2CCCCN32)ccc1F` [Example 32, 2-Hydroxy-1,9-dioxo-5,6,7,8,9,10-hexahydro-1H-4,4b,8a,10a-tetraaza-phenanthrene-3-carboxylic acid 4-fluoro-3-methyl-benzylamide] was run?
**A.** 7.82 to 8.40

**Q.** `Cc1cc(CNC(=O)c2nc3n(c(=O)c2O)CC(=O)N(C)N3)ccc1F` [Example 30, N-(4-Fluoro-3-methylbenzyl)-7-hydroxy-2-methyl-3,6-dioxo-2,3,4,6-tetrahydro-1H-pyrimido[2,1-c][1,2,4]triazine-8-carboxamide] was tested. Which pIC50 did it give?
**A.** ≤ 7.30

**Q.** With `O=C(NCc1ccc(F)cc1)c1nc2n(c(=O)c1O)CC(=O)N1CCCN21` [Example 34, 7-Hydroxy-4,6-dioxo-2,3,4,5-tetrahydro-1H,6H-3a,5a,9,9b-tetraaza-benz[e]indene-8-carboxylic acid 4-fluoro-benzylamide] as the molecule, how does the pIC50 read?
**A.** 4.31 to 7.80

**Q.** With `O=C(NCc1ccc(F)cc1)c1nc2n(c(=O)c1O)CCS2` [Example 36, N-(4-Fluorobenzyl)-6-hydroxy-5-oxo-3,5-dihydro-2H-thiazolo[3,2-a]pyrimidine-7-carboxamide] as the molecule, how does the pIC50 read?
**A.** 7.82 to 8.40

**Q.** How did the pIC50 turn out when `Cc1ccc(CNC(=O)c2nc3n(c(=O)c2O)CC(=O)N3C)cc1C` [Example 13, N-(3,4-Dimethylbenzyl)-6-hydroxy-1-methyl-2,5-dioxo-1,2,3,5-tetrahydroimidazo[1,2-a]pyrimidine-7-carboxamide] was run?
**A.** 4.31 to 7.80

**Q.** With `Cc1cc(CNC(=O)c2nc3n(c(=O)c2O)CC(=O)N3Cc2ccccc2)ccc1F` [Example 15, N-(4-Fluoro-3-methylbenzyl)-1-benzyl-6-hydroxy-2,5-dioxo-1,2,3,5-tetrahydroimidazo[1,2-a]pyrimidine-7-carboxamide] as the molecule, how does the pIC50 read?
**A.** 4.31 to 7.80

**Q.** With `O=C1Cn2c(nc(C(=O)NCc3ccc(F)cc3)c(O)c2=O)CN1` [Example 43, N-(4-Fluorobenzyl)-3-hydroxy-4,7-dioxo-6,7,8,9-tetrahydro-4H-pyrazino[1,2-a]pyrimidine-2-carboxamide] as the molecule, how does the pIC50 read?
**A.** ≤ 7.30

**Q.** With `Cc1cc(CNC(=O)c2nc3n(c(=O)c2O)CCS3)ccc1F` [Example 37, N-(4-Fluoro-3-methylbenzyl)-6-hydroxy-5-oxo-3,5-dihydro-2H-thiazolo[3,2-a]pyrimidine-7-carboxamide] as the molecule, how does the pIC50 read?
**A.** 7.82 to 8.40

**Q.** How did the pIC50 turn out when `CC1(C)NC(=O)Cn2c1nc(C(=O)NCc1ccc(F)cc1)c(O)c2=O` [Example 45, N-(4-fluorobenzyl)-3-hydroxy-9,9-dimethyl-4,7-dioxo-6,7,8,9-tetrahydro-4H-pyrazino[1,2-a]pyrimidine-2-carboxamide] was run?
**A.** 4.31 to 7.80

**Q.** `CNC(=O)c1cc(F)ccc1CNC(=O)c1nc2n(c(=O)c1O)CC(=O)N2C` [Example 17, N-{4-Fluoro-2-(methylcarbamoyl)benzyl}-6-hydroxy-1-methyl-2,5-dioxo-1,2,3,5-tetrahydroimidazo[1,2-a]pyrimidine-7-carboxamide] was tested. Which pIC50 did it give?
**A.** ≤ 7.30

**Q.** How did the pIC50 turn out when `Cc1cc(CNC(=O)c2nc3n(c(=O)c2O)CC(=O)N3C)ccc1F` [Example 11, N-(4-Fluoro-3-methylbenzyl)-6-hydroxy-1-methyl-2,5-dioxo-1,2,3,5-tetrahydroimidazo[1,2-a]pyrimidine-7-carboxamide] was run?
**A.** 7.82 to 8.40

From US7192948B2, “Bicyclic heterocycles as HIV integrase inhibitors” (priority 2004, dated 2007)
